Data as given in PubChem BioAssay (NCI).
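Grown in 96-well plates, cells were treated for 48 hours with each compound at five concentrations. Insufficient inhibition: endpoint recorded as highest concentration tested. GI50 = concentration required for 50% inhibition of growth. Definition used: TGI = concentration required for complete inhibition of growth.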

What was measured:
Assay in all cases: NCI-60 cell line screen, 48 h
ACHN renal = test system: ACHN renal
SNB-75 CNS = test system: SNB-75 CNS
EKVX NSCLC = test system: EKVX NSCLC
SK-MEL-28 melanoma = test system: SK-MEL-28 melanoma
HS 578T breast = test system: HS 578T breast
RXF 393 renal = test system: RXF 393 renal
CCRF-CEM leukemia = test system: CCRF-CEM leukemia
K-562 leukemia = test system: K-562 leukemia
HL-60(TB) leukemia = test system: HL-60(TB) leukemia
SW-620 colon = test system: SW-620 colon
M14 melanoma = test system: M14 melanoma
TK-10 renal = test system: TK-10 renal
OVCAR-3 ovarian = test system: OVCAR-3 ovarian
LOX IMVI melanoma = test system: LOX IMVI melanoma
UO-31 renal = test system: UO-31 renal
OVCAR-4 ovarian = test system: OVCAR-4 ovarian
HOP-92 NSCLC = test system: HOP-92 NSCLC
NCI-H522 lung = test system: NCI-H522 lung
NCI/ADR-RES ovarian = test system: NCI/ADR-RES ovarian
BT-549 breast = test system: BT-549 breast
U251 CNS = test system: U251 CNS
SK-MEL-5 melanoma = test system: SK-MEL-5 melanoma
HCT-15 colon = test system: HCT-15 colon
UACC-257 melanoma = test system: UACC-257 melanoma
SNB-19 CNS = test system: SNB-19 CNS
MCF7 breast = test system: MCF7 breast
KM12 colon = test system: KM12 colon
HT29 colon = test system: HT29 colon
SF-268 CNS = test system: SF-268 CNS
OVCAR-5 ovarian = test system: OVCAR-5 ovarian
A498 renal = test system: A498 renal
UACC-62 melanoma = test system: UACC-62 melanoma
NCI-H226 lung = test system: NCI-H226 lung
SF-539 CNS = test system: SF-539 CNS
SR leukemia = test system: SR leukemia
HCC-2998 colon = test system: HCC-2998 colon
SN12C renal = test system: SN12C renal
A549 NSCLC = test system: A549 NSCLC
CAKI-1 renal = test system: CAKI-1 renal
T-47D breast = test system: T-47D breast
DU-145 prostate = test system: DU-145 prostate
SK-OV-3 ovarian = test system: SK-OV-3 ovarian
MOLT-4 leukemia = test system: MOLT-4 leukemia
RPMI-8226 leukemia = test system: RPMI-8226 leukemia
PC-3 prostate = test system: PC-3 prostate
786-0 renal = test system: 786-0 renal
OVCAR-8 ovarian = test system: OVCAR-8 ovarian
SF-295 CNS = test system: SF-295 CNS
IGROV1 ovarian = test system: IGROV1 ovarian
NCI-H460 lung = test system: NCI-H460 lung
NCI-H23 lung = test system: NCI-H23 lung
COLO 205 colon = test system: COLO 205 colon
HOP-62 NSCLC = test system: HOP-62 NSCLC
MDA-MB-435 = test system: MDA-MB-435
MALME-3M melanoma = test system: MALME-3M melanoma
MDA-MB-231 breast = test system: MDA-MB-231 breast
SK-MEL-2 melanoma = test system: SK-MEL-2 melanoma
HCT-116 colon = test system: HCT-116 colon

CCCCCCCC/C=C/CCCCCCCC1=NC(C)(C)CN1CC(C)O (stereo unspecified)
GI50 (ACHN renal): 1.83 µM
TGI (ACHN renal): 3.55 µM
GI50 (SNB-75 CNS): 1.81 µM
TGI (SNB-75 CNS): 4.23 µM
GI50 (EKVX NSCLC): 4.84 µM
TGI (EKVX NSCLC): 18.2 µM
GI50 (SK-MEL-28 melanoma): 1.74 µM
TGI (SK-MEL-28 melanoma): 3.19 µM
GI50 (HS 578T breast): 1.9 µM
TGI (HS 578T breast): 4.62 µM
GI50 (RXF 393 renal): 1.53 µM
TGI (RXF 393 renal): 3.39 µM
GI50 (CCRF-CEM leukemia): 2.24 µM
TGI (CCRF-CEM leukemia): 5.97 µM
GI50 (K-562 leukemia): 1.44 µM
TGI (K-562 leukemia): 3.27 µM
GI50 (HL-60(TB) leukemia): 1.88 µM
TGI (HL-60(TB) leukemia): 4.44 µM
GI50 (SW-620 colon): 1.8 µM
TGI (SW-620 colon): 3.34 µM
GI50 (M14 melanoma): 1.79 µM
TGI (M14 melanoma): 3.35 µM
GI50 (TK-10 renal): 2.73 µM
TGI (TK-10 renal): 7.49 µM
GI50 (OVCAR-3 ovarian): 5.37 µM
TGI (OVCAR-3 ovarian): 9.96 µM
GI50 (LOX IMVI melanoma): 1.52 µM
TGI (LOX IMVI melanoma): 2.88 µM
GI50 (UO-31 renal): 1.63 µM
TGI (UO-31 renal): 4.19 µM
GI50 (OVCAR-4 ovarian): 3.08 µM
TGI (OVCAR-4 ovarian): 11.1 µM
GI50 (HOP-92 NSCLC): 1.21 µM
TGI (HOP-92 NSCLC): 5.58 µM
GI50 (NCI-H522 lung): 1.92 µM
TGI (NCI-H522 lung): 4.33 µM
GI50 (NCI/ADR-RES ovarian): 2.68 µM
TGI (NCI/ADR-RES ovarian): 6.9 µM
GI50 (BT-549 breast): 2.84 µM
TGI (BT-549 breast): 15.7 µM
GI50 (U251 CNS): 1.64 µM
TGI (U251 CNS): 3.02 µM
GI50 (SK-MEL-5 melanoma): 6.39 µM
TGI (SK-MEL-5 melanoma): 16.9 µM
GI50 (HCT-15 colon): 1.63 µM
TGI (HCT-15 colon): 3.27 µM
GI50 (UACC-257 melanoma): 1.85 µM
TGI (UACC-257 melanoma): 3.54 µM
GI50 (SNB-19 CNS): 5.54 µM
TGI (SNB-19 CNS): 17.7 µM
GI50 (MCF7 breast): 1.85 µM
TGI (MCF7 breast): 3.62 µM
GI50 (KM12 colon): 1.99 µM
TGI (KM12 colon): 3.98 µM
GI50 (HT29 colon): 1.59 µM
TGI (HT29 colon): 3.09 µM
GI50 (SF-268 CNS): 1.73 µM
TGI (SF-268 CNS): 3.16 µM
GI50 (OVCAR-5 ovarian): 3.6 µM
TGI (OVCAR-5 ovarian): 10.4 µM
GI50 (A498 renal): 0.935 µM
TGI (A498 renal): 17 µM
GI50 (UACC-62 melanoma): 1.66 µM
TGI (UACC-62 melanoma): 3.13 µM
GI50 (NCI-H226 lung): 6.25 µM
TGI (NCI-H226 lung): 23.7 µM
GI50 (SF-539 CNS): 1.7 µM
TGI (SF-539 CNS): 3.09 µM
GI50 (SR leukemia): 0.7 µM
TGI (SR leukemia): 2.65 µM
GI50 (HCC-2998 colon): 4.68 µM
TGI (HCC-2998 colon): 9.45 µM
GI50 (SN12C renal): 3.3 µM
TGI (SN12C renal): 12.3 µM
GI50 (A549 NSCLC): 1.8 µM
TGI (A549 NSCLC): 3.42 µM
GI50 (CAKI-1 renal): 1.53 µM
TGI (CAKI-1 renal): 3 µM
GI50 (T-47D breast): 2.03 µM
TGI (T-47D breast): 4.58 µM
GI50 (DU-145 prostate): 1.71 µM
TGI (DU-145 prostate): 3.09 µM
GI50 (SK-OV-3 ovarian): 7.64 µM
TGI (SK-OV-3 ovarian): 21.1 µM
GI50 (MOLT-4 leukemia): 2.05 µM
TGI (MOLT-4 leukemia): 4.28 µM
GI50 (RPMI-8226 leukemia): 2.28 µM
TGI (RPMI-8226 leukemia): 5.91 µM
GI50 (PC-3 prostate): 2.26 µM
TGI (PC-3 prostate): 8.08 µM
GI50 (786-0 renal): 1.71 µM
TGI (786-0 renal): 3.16 µM
GI50 (OVCAR-8 ovarian): 1.97 µM
TGI (OVCAR-8 ovarian): 3.9 µM
GI50 (SF-295 CNS): 1.82 µM
TGI (SF-295 CNS): 3.5 µM
GI50 (IGROV1 ovarian): 1.45 µM
TGI (IGROV1 ovarian): 2.84 µM
GI50 (NCI-H460 lung): 1.94 µM
TGI (NCI-H460 lung): 3.64 µM
GI50 (NCI-H23 lung): 3.11 µM
TGI (NCI-H23 lung): 7.99 µM
GI50 (COLO 205 colon): 1.76 µM
TGI (COLO 205 colon): 3.45 µM
GI50 (HOP-62 NSCLC): 1.83 µM
TGI (HOP-62 NSCLC): 3.39 µM
GI50 (MDA-MB-435): 1.77 µM
TGI (MDA-MB-435): 3.45 µM
GI50 (MALME-3M melanoma): 1.97 µM
TGI (MALME-3M melanoma): 4.67 µM
GI50 (MDA-MB-231 breast): 1.66 µM
TGI (MDA-MB-231 breast): 3.43 µM
GI50 (SK-MEL-2 melanoma): 2.28 µM
TGI (SK-MEL-2 melanoma): 5.21 µM
GI50 (HCT-116 colon): 1.84 µM
TGI (HCT-116 colon): 3.32 µM
